Test: xn = mol fraction of the nth substance listed
Details: 101 kPa, Liquid; for viscosity: Capillary tube (Ostwald / Ubbelohde) method; for speed of sound: Linear variable-path acoustic interferometer; for mass density: Pycnometric method

Cc1ccccc1 [toluene] + CC(=O)OC(C)(C)C
x2 = 0
Details | mass density [kg/m3] | speed of sound [m/s] | viscosity [mPa·s]
298.15 K | 862.2 | 1312 | 0.556
308.15 K | 852.5 | 1270 | 0.494

c1ccccc1 [benzene] + CC(=O)OC(C)(C)C
x2 = 0
Details | mass density [kg/m3] | speed of sound [m/s] | viscosity [mPa·s]
298.15 K | 873 | 1296 | 0.609
308.15 K | 862 | 1260 | 0.539

CC(=O)OC(C)(C)C [1,1-dimethylethyl ethanoate] + c1ccccc1
Details | mass density, 298.15 K [kg/m3] | mass density, 308.15 K [kg/m3] | speed of sound, 298.15 K [m/s] | speed of sound, 308.15 K [m/s] | viscosity, 298.15 K [mPa·s] | viscosity, 308.15 K [mPa·s]
x1 = 0.0987 | 870.6 | 859.3 | 1254 | 1215 | 0.613 | 0.54
x1 = 0.1999 | 868.5 | 856.8 | 1220 | 1179 | 0.618 | 0.542
x1 = 0.299 | 866.7 | 854.9 | 1192 | 1150 | 0.623 | 0.544
x1 = 0.3982 | 865.3 | 853.2 | 1169 | 1127 | 0.629 | 0.548
x1 = 0.498 | 864.1 | 851.9 | 1149 | 1107 | 0.636 | 0.552
x1 = 0.5995 | 863 | 850.8 | 1133 | 1091 | 0.643 | 0.558
x1 = 0.6996 | 862.3 | 850 | 1120 | 1079 | 0.651 | 0.565
x1 = 0.7999 | 861.7 | 849.5 | 1109 | 1068 | 0.661 | 0.574
x1 = 0.8993 | 861.3 | 849.4 | 1099 | 1060 | 0.671 | 0.584
x1 = 1 | 861.1 | 849.4 | 1092 | 1055 | 0.683 | 0.596

CCc1ccccc1 [ethylbenzene] + CC(=O)OC(C)(C)C
x2 = 0
Details | mass density [kg/m3] | speed of sound [m/s] | viscosity [mPa·s]
298.15 K | 864.4 | 1325 | 0.631
308.15 K | 855.4 | 1280 | 0.569

CC(=O)OC(C)(C)C [1,1-dimethylethyl ethanoate] + Cc1ccccc1
Details | mass density, 298.15 K [kg/m3] | mass density, 308.15 K [kg/m3] | speed of sound, 298.15 K [m/s] | speed of sound, 308.15 K [m/s] | viscosity, 298.15 K [mPa·s] | viscosity, 308.15 K [mPa·s]
x1 = 0.0976 | 861.9 | 851.9 | 1275 | 1232 | 0.567 | 0.502
x1 = 0.1986 | 861.6 | 851.2 | 1242 | 1197 | 0.577 | 0.509
x1 = 0.2993 | 861.2 | 850.5 | 1213 | 1168 | 0.588 | 0.516
x1 = 0.3975 | 860.8 | 849.9 | 1187 | 1143 | 0.599 | 0.524
x1 = 0.4983 | 860.5 | 849.4 | 1165 | 1120 | 0.611 | 0.533
x1 = 0.5978 | 860.3 | 848.9 | 1145 | 1101 | 0.623 | 0.542
x1 = 0.6975 | 860.2 | 848.7 | 1128 | 1085 | 0.636 | 0.553
x1 = 0.7972 | 860.3 | 848.7 | 1113 | 1072 | 0.65 | 0.565
x1 = 0.8987 | 860.6 | 848.9 | 1101 | 1062 | 0.666 | 0.58
x1 = 1 | 861.1 | 849.4 | 1092 | 1055 | 0.683 | 0.596

CC(=O)OC(C)(C)C [1,1-dimethylethyl ethanoate] + CCc1ccccc1
Details | mass density, 298.15 K [kg/m3] | mass density, 308.15 K [kg/m3] | speed of sound, 298.15 K [m/s] | speed of sound, 308.15 K [m/s] | viscosity, 298.15 K [mPa·s] | viscosity, 308.15 K [mPa·s]
x1 = 0.0979 | 863.9 | 854.7 | 1287 | 1245 | 0.635 | 0.571
x1 = 0.1974 | 863.3 | 853.9 | 1254 | 1214 | 0.639 | 0.573
x1 = 0.2989 | 862.6 | 852.9 | 1224 | 1186 | 0.641 | 0.573
x1 = 0.3983 | 861.9 | 852 | 1198 | 1161 | 0.644 | 0.574
x1 = 0.4976 | 861.3 | 851.1 | 1176 | 1139 | 0.647 | 0.575
x1 = 0.5986 | 860.7 | 850.3 | 1155 | 1119 | 0.651 | 0.576
x1 = 0.6977 | 860.4 | 849.7 | 1137 | 1101 | 0.656 | 0.579
x1 = 0.7979 | – | 849.3 | 1121 | 1085 | 0.663 | 0.582
x1 = 0.8978 | 860.5 | 849.2 | 1106 | 1069 | 0.671 | 0.588
x1 = 1 | 861.1 | 849.4 | 1092 | 1055 | 0.683 | 0.596
